# Experimental data taken from patent US20150299660A1, “DIFFERENTIATION OF HUMAN FIBROBLAST CELLS” (International Stem Cell Corporation, priority 2012, published 2015).
# Assays:
# human fibroblast cells = experiment: Differentiation of human fibroblast cells into adipocytes (lipid accumulation, Oil Red O); format: cell-based; settings: Troglitazone in combination with other elements
# Description: Fibroblast cells were grown in FibroLife S2 on standard tissue culture-treated plastic. Fibroblasts cells were plated at 20,000 cells/cm^2 and allowed the cells to grow to confluence (roughly 80,000 cells/cm^2) in approximately 2 days. Once the cells reached confluence the cell culture media was changed to AdipoLife Complete DifFactor 1 media. The cell culture media continued to be changed every 2 days. After 4 days the cell culture media was changed to AdipoLife Complete DifFactor 2 media for 17 days. Lipid accumulation was visible after 5 days culture in the AdipoLife Complete DifFactor 2 media. After 3 weeks of culture the cells were stained with Oil Red O stained to assay for accumulated lipids
# [1] = tested on: MSC which have under gone chondrogenesis; experiment: Cartilage / matrix formation by MSC which have undergone chondrogenesis, complex sugars in the media; format: cell-based; settings: sugar in the media
# Excerpt: (§1) As used herein, the terms “complex sugar” and “complex sugars” includes monomeric and polymeric sugar chains. The use of sugars as a supplement enhancing extracellular matrix deposition is a unique aspect to the present invention. They can also be specific for cell type. As an example, previous studies have shown mesenchymal stem for chondrogenesis using a similar formulation as disclosed in the present invention, but without glucosamine sulfate. […] In a surprising aspect the present invention discloses that the use of certain complex sugars in the media massively increases the accumulation of calcium derived from osteocytes while the use of other sugars actively suppresses the accumulation of calcium. […] Fibroblasts allowed to acquire a MSC like state require galactose, glucuronic acid and glucosamine sulfate for cartilage formation, while hyaluronic acid will repress it. Examples of sugars are hyaluronic acid, galactose, glucosamine sulfate, glucuronic acid, mannose, sialic acid, chondroitin sulfate and galactosamine.
# [2] = tested on: MSC which have undergone osteogenesis; experiment: Calcium / matrix deposition by MSC which have undergone osteogenesis, complex sugars in the media; format: cell-based; settings: sugar in the media
# Excerpt: as §1
# [3] = tested on: Fibroblasts allowed to acquire a MSC like state; experiment: Cartilage formation by fibroblasts allowed to acquire a MSC like state, complex sugars in the media; format: cell-based; settings: sugar in the media
# Excerpt: as §1
# Fibroblast cells were grown in FibroLife S2 on standard tissue culture-treated plastic. Fibroblasts cells were plated at 20,000 cells/cm^2 and allowed the cells to grow to 80-90% confluence actively proliferating.
# The cells were centrifuged and the cells resuspended at 2.5×10^7 cells/ml in 1.5% alignate solution. The cells in the alignate solution are loaded into a syringe and applied to a stirred 100 mM calcium chloride solution to form microbeads. After 10 minutes, the calcium chloride solution was removed and the microbeads transferred to a 48 well plate. The microbeads were washed twice with 0.5 ml ChondroLife Chondrogenesis media (Table 7). The plates were incubated at 37° C., 5% CO2. The media was changed every 2-3 days for 3 weeks.
# To examine the growth of the chondrocytes, the microbeads were fixed, frozen in OCT compound, cut in 5 μM sections and mounted on glass slides. The microbeads were stained with Alcian Blue to detect the presence of sulfated proteoglycans.
# mesenchymal stem cells = settings: shown previously; cited from earlier work
# fibroblasts = settings: has been shown; cited from earlier work
Compound,surface of the human cell culture covered with lipid-accumulating cells (human fibroblast cells),effect on cartilage formation / matrix deposition [1],effect on calcium deposition / matrix formation [2],effect on cartilage formation [3],effect on matrix secretion (mesenchymal stem cells),effect on matrix deposition (fibroblasts)
Cc1c(C)c2c(c(C)c1O)CCC(C)(COc1ccc(CC3SC(=O)NC3=O)cc1)O2 (centres unmarked) [Troglitazone],≥ 70%,–,–,–,–,–
O=C[C@H](O)[C@@H](O)[C@@H](O)[C@H](O)CO [galactose],–,vastly augments cartilage formation,vastly increased amounts of calcium deposition,require,–,–
N[C@H]1C(O)O[C@H](CO)[C@@H](O)[C@@H]1O.O=S(=O)(O)O (some centres unmarked) [glucosamine sulfate],–,repress matrix deposition,vastly increased amounts of calcium deposition,require,detrimental to matrix secretion,–
O=C[C@H](O)[C@@H](O)[C@H](O)[C@H](O)C(=O)O [glucuronic acid],–,vastly augments cartilage formation,–,require,–,–
hyaluronic acid,–,vastly augments cartilage formation,vastly increased amounts of calcium deposition,repress it,–,detrimental to matrix deposition
